Measurements: PubChem BioAssay AID1419 (Emory University Molecular Libraries Screening Center, 2008)
Activity calls are given as the source filed them. No rule for the calls is given here.

Assay: EBV protein-peptide binding inhibitors, dose response, biochemical, fluorescence polarization (AID 1419)
Settings: cell-free protein-peptide binding, 2 h; for fold change: measured here: P channel fold over control, at 54 µM

| Structure (SMILES) | IC50 | fold change |
| --- | --- | --- |
| C#CCn1cc(C=C2C(=O)c3ccccc3C2=O)c2ccccc21 | 9.87 µM | 4.31 |
| CCOC(=O)c1c(C)[nH]c(C)c1C(=O)CSc1nc2ccccc2n1CC | > 54 µM (inactive) | 1.24 |
| CCOc1ccc2[nH]c(=O)c(CN(CC3COCCO3)C(=O)C3CC3)cc2c1 (stereo unspecified) | > 54 µM (inactive) | 1.04 |
| COc1ccc(/C=C2\SC(=O)N(CC(=O)NNC(=O)c3ccccc3O)C2=O)cc1 | > 54 µM (inactive) | 1.01 |
| COC(=O)c1cc2n3ccccc3c(C)c(-c3ccccc3)c-2c1C(=O)OC | 2.69 µM | 4.46 |
| CC(=O)OCCCNc1cc(Sc2nc3ccccc3s2)c2nonc2c1[N+](=O)[O-] | 9.79 µM | 4.44 |
| O=c1nc2c(O)cccn2c2c1c(=O)[nH]c1ccccc12 | < 0.42 µM | 7.35 |
| COc1ccccc1Nc1nc2ccc(C)cc2cc1C#N | 16.6 µM | 2.74 |
| CC(=O)Nc1nc(C)c(-c2csc(Nc3cccc([N+](=O)[O-])c3)n2)s1 | > 54 µM (inactive) | 0.71 |
| O=C(O)COc1ccc(/C=N/NC(=O)c2ccc(-c3csc(Nc4ccc(Cl)cc4)n3)cc2)cc1 | 14.7 µM | 1.13 |
| O=C1c2ccccc2-c2ncnc3c(N4CCOCC4)cc(N4CCOCC4)c1c23 | > 54 µM (inactive) | 1.1 |
| CC(=O)N1CCCc2cc(S(=O)(=O)N(CC(C)C)CC(C)C)ccc21 | > 54 µM (inactive) | 0.967 |
| CCN1CC=C2C(C#N)=C(N)C(C#N)(C#N)C(c3cc(Cl)ccc3Cl)C2C1 (stereo unspecified) | > 54 µM (inactive) | 4.31 |
| COc1ccc(OC)c(/C=C2\SC(=S)N(Cc3cccnc3)C2=O)c1 | 6.71 µM | 5.16 |
| CCSc1cc(N2CCCC2)nc(-c2ccccc2Cl)n1 | 45.7 µM (inactive) | 1.05 |
| CC(=O)c1ccc(N2C(=O)C3C(C2=O)C(C(=O)c2ccc(Cl)cc2)N2CCCC32)cc1 (stereo unspecified) | 7.19 µM | 8.74 |
| N#C/C(=C\C1=C(N2CCOCC2)C(=C/c2cccc([N+](=O)[O-])c2)/CC1)C(=O)Nc1ccccc1F | 3.64 µM | 2.26 |
| CCN(CC)c1ccc(/C=C(/C#N)c2nc3ccc(C)cc3[nH]2)c(OC(C)C)c1 | 1.51 µM | 22 |
| COc1ccc(/C=N/N=C2/CC(C)(C)Cc3n[nH]c(=O)cc32)cc1 | 4.15 µM | 3.61 |
| CCN(CC)c1ccc2cc(NC(=O)CCC(=O)O)c(=O)oc2c1 | 1.17 µM | 12 |
| CSc1nc(N(C)CCO)c2sc3nc(-c4ccco4)c4c(c3c2n1)CCC4 | > 54 µM (inactive) | 1.04 |
| COc1ccc(NC(=O)C2Cc3ccccc3CN2C(=O)c2ccccc2)cn1 (stereo unspecified) | 8.48 µM | 3.29 |
| CCOc1ccc2nc(N3C(=O)/C(=C/c4ccc(Cl)cc4)NC3=S)sc2c1 | > 54 µM (inactive) | 1.35 |
| COc1ccc(-n2c(C)cc(/C=C3/SC(=S)N(C)C3=O)c2C)cc1 | 23.5 µM | 7.53 |
| O=C(N/N=C/c1ccccc1Cl)c1nc2ccc([N+](=O)[O-])cc2c(=O)[nH]1 | > 54 µM (inactive) | 0.977 |
| CCN(CC)c1ccc2cc(S(=O)(=O)c3ccc(C)cc3)c(=O)oc2c1 | 6.25 µM | 36.6 |
| Cc1ccc(CSc2nnc3c(n2)OC2(Nc4ccccc4-3)C(=O)Nc3ccc(F)cc32)cc1 (stereo unspecified) | 6.29 µM | 16.9 |
| COc1ccc(C(CC(=O)N2CCOCC2)c2c(OC)cc(OC)c3c(-c4ccccc4)cc(=O)oc23)cc1 (stereo unspecified) | > 54 µM (inactive) | 0.973 |
| CCCn1c(=C(C#N)C#N)s/c(=C2\C=Cc3ccccc3N2CC)c1=O | > 54 µM (inactive) | 1.52 |
| CCOc1ccccc1-c1c2cc(O)c(=O)cc-2oc2cc(O)c(O)cc12 | > 54 µM (inactive) | 232 |

Further lines, with some results ahead:

| IC50 | Structure (SMILES) | fold change |
| --- | --- | --- |
| > 54 µM (inactive) | Fc1ccccc1/C=N/Nc1ncnc2nc[nH]c12 | 1.17 |
| > 54 µM (inactive) | COc1ccc(Cc2nnc(NC(=O)Cc3cccs3)s2)cc1OC | 1.15 |
| 14.8 µM | CCn1c(O)c(/C=N/N=C/c2ccccc2)c2ccc(C3=NNC(=O)CC3)cc21 | 9.01 |
| 1.88 µM | O=C1N=c2ccccc2=C1c1sc(Nc2ccc(O)cc2)nc1O | 0.2 |
| 8.64 µM | Cc1cc(/C=C2\SC(=S)N(Cc3ccco3)C2=O)c(C)n1-c1cccnc1 | 18.3 |
| 2.8 µM | CNc1cccc2c1C(=O)c1ccccc1C2=O | 2.44 |
| > 54 µM (inactive) | COc1ccccc1NC(=O)CC(c1ccc(OC(C)C)cc1)c1ccccc1OC (stereo unspecified) | 0.927 |
| 4.3 µM | Cn1cc(/C=C2\SC(=S)N(NC(=O)c3cccc(Cl)c3)C2=O)c2ccccc21 | 8.23 |
| 2.02 µM | O=c1[nH]c(Nc2ccccc2)cc2ccccc12 | 2.34 |
| 0.9 µM | Cc1ccc(C2C(C(=O)c3cccs3)=C(O)C(=O)N2c2nnc(C)s2)cc1 (stereo unspecified) | 3.94 |
| 2.85 µM | COc1ccc(-n2cccc2/C=C2\C(=N)N3N=C(c4ccco4)SC3=NC2=O)cc1 | 1.17 |
| > 54 µM (inactive) | O=C(Nc1nccs1)C(c1ccccc1)N1CCCC1 (stereo unspecified) | 1.04 |
| > 54 µM (inactive) | CCN1C(=O)/C(=C\c2ccc(-c3ccc([N+](=O)[O-])cc3OC)o2)SC1=Nc1cccc(C(=O)O)c1 | 0.573 |
| 10.3 µM | CN1CCc2cc3c(c4c2[C@H]1[C@H](O)c1ccccc1-4)OCO3 | 2.19 |
| 4.09 µM | Nc1c(O)ccc2c1C(=O)c1ccccc1C2=O | 2.59 |
| 2.61 µM | O=C1CSC(=S)N1/N=C/c1ccc(O)c(O)c1O | 1.04 |
| 1.21 µM | CN(C)c1ccc(/C=C(\C#N)C(=O)Nc2nc3c(s2)CCN(Cc2ccccc2)C3)cc1 | 19.9 |
| 4.13 µM | CCOc1ccc(N/C=C/C(=O)c2ccc(OC)cc2)c([N+](=O)[O-])c1 | 2.81 |
| > 54 µM (inactive) | CC(C)(C)NC(=O)c1sccc1C(=O)O | 1.06 |
| 20 µM | N#CC1=C(N)OC2=C(CC/C2=C\c2ccc(F)cc2)C1c1ccc(F)cc1 (stereo unspecified) | 3.48 |
| 5.97 µM | Oc1c(Cl)cc(Cl)c(Cl)c1Cc1c(O)c(Cl)cc(Cl)c1Cl | 0.987 |
| > 54 µM (inactive) | N#CC1=C(N)N2C(=C(C#N)C1c1ccccc1)Sc1ccccc12 (stereo unspecified) | 2.54 |
| 20.1 µM | Cc1cc(C)n2c(SC/C(O)=C(\C#N)c3nc4ccccc4[nH]3)nnc2n1 | 1.1 |
| 2.72 µM | COc1ccc2ccccc2c1C(O)c1nccn1C (stereo unspecified) | 5.13 |
| > 54 µM (inactive) | Cc1cc[n+](-c2[nH]c(=O)sc2/C=N/NC([S-])=Nc2ccccc2)cc1 | 1.42 |
| 1 µM | Cc1c2cc(O)c(=O)cc-2oc2cc(O)c(O)cc12 | 236 |
| 3.3 µM | N=C1/C(=C\c2ccc(-c3ccc(C(=O)O)cc3)o2)C(=O)N=C2SC=C(c3ccccc3)N12 | 1.28 |
| 4.53 µM | CN1C=CC2=C(C#N)C(N)C(C#N)(C#N)C(c3ccccc3)C2C1 (stereo unspecified) | 3.69 |
